The target in this data set is Cytochrome P450 2D6 (Homo sapiens) (UniProt P10635). The data set can be described thus: qHTS Assay for Inhibitors of Bacillus subtilis Sfp phosphopantetheinyl transferase (PPTase): CYP 2D6. The following applies: CYP2D6 inhibition, single concentration 3 uM; at 3 µM; stronger effect = higher value. An excerpt:
The covalent attachment of a phosphopantetheinyl (4'-PP) arm to a variety of synthases and other proteins is a key posttranslational protein modification. The 4'-PP is installed on the proteins post-translationally from coenzyme A (CoA) on a conserved serine residue by action of phosphopantetheinyl transferase (PPTase) enzymes. Phosphopantetheinylation is essential for synthase activity, and removal of the PPTase gene precludes natural product synthesis in microorganisms, or in the case of fatty acid biosynthesis, renders the organism unviable. PPTase enzymes belong to a distinct structural superfamily. Within bacteria, these enzymes are grouped into two classes based upon primary structure, the AcpS-Type and Sfp-Type PPTases.
Sfp-type PPTases, corresponding to an activator of surfactin production in Bacillus subtilis, are responsible for modifying type I polyketide and nonribosomal peptide synthases of prokaryotes. Sfp-type PPTases are responsible for the activation of a variety of pathogen-associated virulence factors. Among these compounds are toxins such as mycolactone from Mycobacterium ulcerans, siderophores such as vibriobactin from Vibrio cholerae or mycobactin from Mycobacterium tuberculosis, as well as the mycolic acids which form the waxy cell wall of Mycobacteria. The biosyntheses of these natural products are considered attractive targets for drug design. […]

What is called inhibition is the percentage by which the read-out fell short of the control.

Structures are written as SMILES.

Cytochrome P450 2D6 (Homo sapiens), sequence (P10635 whole entry, looked up): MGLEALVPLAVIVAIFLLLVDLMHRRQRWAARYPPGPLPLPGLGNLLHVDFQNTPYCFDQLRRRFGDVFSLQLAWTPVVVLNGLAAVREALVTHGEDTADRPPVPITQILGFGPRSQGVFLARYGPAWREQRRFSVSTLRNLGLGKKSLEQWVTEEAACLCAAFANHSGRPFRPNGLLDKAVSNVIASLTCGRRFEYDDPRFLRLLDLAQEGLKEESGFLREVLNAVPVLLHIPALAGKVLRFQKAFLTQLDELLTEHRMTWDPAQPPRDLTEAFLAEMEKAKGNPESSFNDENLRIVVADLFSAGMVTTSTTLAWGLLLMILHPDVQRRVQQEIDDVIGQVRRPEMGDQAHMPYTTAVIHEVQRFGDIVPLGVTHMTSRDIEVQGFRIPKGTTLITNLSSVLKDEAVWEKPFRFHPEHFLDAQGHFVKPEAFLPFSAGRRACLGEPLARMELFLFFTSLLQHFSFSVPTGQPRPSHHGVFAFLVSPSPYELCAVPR

For the compound `COc1ccnc(NC(=S)N2CCN(c3ncc(C(F)(F)F)cc3Cl)CC2)c1`, the inhibition is 25%.

The values above are taken from PubChem BioAssay AID624119 (National Center for Advancing Translational Sciences (NCATS), 2012).
